We go through 2 compounds from patent publication US12595269B2, “Morpholine-like monoamine releasers” (Solvonis Therapeutics Ireland Holdings Limited, priority 2022, dated 2026).

In general, IC50 refers to the midpoint of a concentration-inhibition curve.

One data set deals with T1, CYP2B6 (Homo sapiens, UniProt P20813).
T1 construct: purchased Life Technologies P3028; host or cells: Baculosomes
T1 sequence (P20813 1-491): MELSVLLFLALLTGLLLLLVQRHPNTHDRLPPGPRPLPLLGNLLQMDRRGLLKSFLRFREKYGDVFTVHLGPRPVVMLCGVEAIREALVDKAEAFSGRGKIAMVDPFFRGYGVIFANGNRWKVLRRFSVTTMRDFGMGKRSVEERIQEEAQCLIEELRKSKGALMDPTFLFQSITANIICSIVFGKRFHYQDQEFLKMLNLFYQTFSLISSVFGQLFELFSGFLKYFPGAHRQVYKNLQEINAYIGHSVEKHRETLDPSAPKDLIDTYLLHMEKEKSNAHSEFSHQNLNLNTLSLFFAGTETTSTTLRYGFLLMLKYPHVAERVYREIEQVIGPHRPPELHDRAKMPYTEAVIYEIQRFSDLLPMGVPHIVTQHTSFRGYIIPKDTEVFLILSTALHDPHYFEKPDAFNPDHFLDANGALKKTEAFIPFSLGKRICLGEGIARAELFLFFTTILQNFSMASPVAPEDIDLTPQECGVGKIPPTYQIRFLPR
Put plainly: CYP450 inhibition, Vivid CYP2B6 Baculosomes, BOMCC substrate. In kind it is in vitro ADME. As to the method:
(§1) Methods and Procedure: The study was performed in agreement with previously described procedures to assure data integrity and adherence to GLP standards. Briefly, recombinant human CYP450 isoenzymes were used to metabolize pro-fluorescent probe substrates to fluorescent products. IC50 values determined from the effect of test compounds on the metabolism of these probe substrates were then used to determine inhibitory potency against CYP450 isoforms.
(§2) The test system was based on a three-step procedure with a “mix and read” format, where PGP-432,TI reaction and reading were performed at 37° C. […] Fluorescence was measured in kinetic mode (1 read/minutes for 10 minutes), and the fluorescence rate was calculated. […]
Next, 10 μL/well from the compound plate was added and incubated for 10 minutes at 37° C. on a plate shaker, while a mixture of Vivid Substrate and Vivid NADP+ in Vivid CYP450 Reaction Buffer was prepared. The reaction was initiated by adding 10 μL/well of the Vivid Substrate and NADP+ mixture, before transferring the plate into the fluorescent plate reader (immediately, within 2 minutes), and fluorescence was monitored every minute for 10 minutes according to the specific protocol. Regarding data analysis, the inhibition effect is expressed as a percentage. […]

The next data set has as its target T2, CYP2C9 (Homo sapiens, UniProt P11712).
T2 construct: host or cells: recombinant microsomes
Put plainly: CYP450 inhibition, fluorescent probe, recombinant microsomes: CYP2C9. In kind it is in vitro ADME. How it is done: as §1, §2
Microsomes were added to the buffer prior to the substrate addition. […] For fluorescence measurement, 10 μL/well of the test compounds were transferred from the compound plate to the assay plate using Biomek FX and the appropriate protocol. […]
10 μL/well of the cofactor was then added to the assay plate using the Multidrop before placing the assay plate in the plate reader EnVision to measure fluorescence. […]
Next, 10 μL/well from the compound plate was added and incubated for 10 minutes at 37° C. on a plate shaker, while a mixture of Vivid Substrate and Vivid NADP+ in Vivid CYP450 Reaction Buffer was prepared. […] Regarding data analysis, the inhibition effect is expressed as a percentage. […]

Structures are written as SMILES.

T2 sequence (P11712 whole entry): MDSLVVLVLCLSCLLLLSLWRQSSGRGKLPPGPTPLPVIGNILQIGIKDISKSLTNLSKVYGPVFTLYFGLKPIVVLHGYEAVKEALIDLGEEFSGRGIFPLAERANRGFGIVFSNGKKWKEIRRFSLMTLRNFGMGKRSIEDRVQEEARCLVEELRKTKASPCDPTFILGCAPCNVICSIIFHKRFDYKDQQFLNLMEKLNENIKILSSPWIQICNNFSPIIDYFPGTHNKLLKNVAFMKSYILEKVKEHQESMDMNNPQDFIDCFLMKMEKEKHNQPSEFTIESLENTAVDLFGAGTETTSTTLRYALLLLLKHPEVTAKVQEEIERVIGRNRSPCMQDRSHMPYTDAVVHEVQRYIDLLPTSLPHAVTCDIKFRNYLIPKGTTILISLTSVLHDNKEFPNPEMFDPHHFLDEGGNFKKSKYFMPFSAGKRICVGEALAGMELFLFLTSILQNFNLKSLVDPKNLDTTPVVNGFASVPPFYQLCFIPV

As for `Clc1ccc(C23CNC(CO2)C3)cc1Cl` (stereo not shown) [522A, 1-(3,4-dichlorophenyl)-2-oxa-5-azabicyclo[2.2.1]heptane], the IC50 at CYP2B6 (recombinant human CYP2B6) is 41 µM; at CYP2C9 (recombinant human CYP2C9), greater than 50 µM.

In the case of `CNC(C)Cc1ccc2c(c1)OCO2` (stereo not shown) [MDMA, reference compound], the half-maximal inhibitory concentration (IC50) at 10 min at CYP2B6 (human, recombinant CYP2B6 Baculosomes, pH 8, probe Vivid BOMCC) amounted to 50 µM; on CYP2C9 (human, recombinant microsomes expressing CYP2C9), 50 µM.
